Data: patent US20100267561A1, “HERBICIDAL PYRIDAZINONE DERIVATIVES” (priority 2007, published 2010)
Each block holds one molecule with its values, some of them ahead of it.

What was measured:
[1] = tested on: tropical (T.) spiderwort (Commelina benghalensis); test: Test E pre-/postemergence plant response; format: in vivo; conditions: scale 0 to 100
Method in brief: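 Plant response was judged by eye relative to controls, 0 meaning no effect and 100 complete control, after 14 to 21 days under greenhouse conditions. Compound was formulated in a non-phytotoxic solvent mixture with surfactant.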

SMILES: CCc1cc(-c2ccc(Cl)cc2)nn1-c1c(OC(=O)C(C)(C)C)cnn(C)c1=O [Compound 40]
Plant response rating, Spiderwort, T. ([1]; 16 g ai/ha, Preemergence): 0 | Plant response rating, Spiderwort, T. ([1]; 31 g ai/ha, Preemergence): 0 | Plant response rating, Spiderwort, T. ([1]; 62 g ai/ha, Preemergence): 0 | Plant response rating, Spiderwort, T. ([1]; Postemergence, 8 g ai/ha): 0 | Plant response rating, Spiderwort, T. ([1]; Postemergence, 16 g ai/ha): 0 | Plant response rating, Spiderwort, T. ([1]; Postemergence, 31 g ai/ha): 0 | Plant response rating, Spiderwort, T. ([1]; Postemergence, 62 g ai/ha): 0

melting point: 227 to 229 °C
SMILES: CCc1c(C)c(-c2ccc(Cl)cc2)nn1-c1c(O)cnn(C)c1=O [Compound 26, 4-[3-(4-chlorophenyl)-5-ethyl-4-methyl-1H-pyrazol-1-yl]-5-hydroxy-2-methyl-3(2H)-pyridazinone]

SMILES: Cn1ncc(O)c(-c2nn(-c3ccc(Cl)cc3)cc2Br)c1=O [Compound 31]
Plant response rating, Spiderwort, T. ([1]; 16 g ai/ha, Preemergence): 0 | Plant response rating, Spiderwort, T. ([1]; 31 g ai/ha, Preemergence): 0 | Plant response rating, Spiderwort, T. ([1]; 62 g ai/ha, Preemergence): 0 | Plant response rating, Spiderwort, T. ([1]; Postemergence, 8 g ai/ha): 0 | Plant response rating, Spiderwort, T. ([1]; Postemergence, 16 g ai/ha): 0 | Plant response rating, Spiderwort, T. ([1]; Postemergence, 31 g ai/ha): 0 | Plant response rating, Spiderwort, T. ([1]; Postemergence, 62 g ai/ha): 0
